Reference: patent US12385042B2, “Cell-penetrating peptides” (VECTIOPEP OÜ, priority 2019, dated 2025)
Where a SMILES comes first, the peptide text is derived from it. Bridges are numbered along the chain shown (N, C = ends). Roman numbers before positions name the chains, in order. [ ]: non-standard residue; d: D form. The star is where a group is joined. Arachidoyl = CCCCCCCCCCCCCCCCCCCC(=O)*; Stearoyl = CCCCCCCCCCCCCCCCCC(=O)*; Orn = NCCC[C@H](N)C(=O)O

Tests used:
murine red blood cells = assay: Membrane activity assay on murine red blood cells: hemolysis; type: cell-based, mouse; conditions: for HC50 CPP/siRNA complex (peptide concentration): CPP/siRNA complexes at MR30; for HC50 Free peptide: pH 7.5
Protocol: For evaluation of membrane activity of peptides, hemolysis assay was used. For this whole blood was collected from mouse (adult, BALB/c) saphenous vein into a heparinized collection tube. Blood was centrifuged (2300× g, 15 min) to separate cells (red blood cells-RBC) from the plasma. RBCs were washed according to following procedures.
RBCs were washed with 10 ml 0.9% NaCl saline and centrifuged (600× g, 15 min). Supernatant was discarded after each centrifugation. This was repeated at least 3 times. RBCs were re-suspended in 5 ml saline and distributed equally to tubes and centrifuged (600× g, 15 min). The cells were washed and re-suspended in 2× PBS with the required pH (pH 5.5-7.5). The hemoglobin content in stocks was measured after lysis of cells with equal volume of 0.1% Triton X100 supplemented with 5% glucose. The cell suspension was diluted accordingly for each pH value to obtain similar concentration range of hemoglobin in stocks. To each 100 ul of peptide solution 100 ul of 10% glucose was added, mixed, and equal volume (200 ul) of RBC in 2× PBS were added and gently mixed. Peptide solution with RBCs was incubated at 37° C. for 1 h with gentle mixing (max 300 rpm) after which samples were centrifuged to pellet intact cells from the solution. Hemoglobin from lysed cells was determined from each sample from the supernatant on transparent 96-well plates by measuring the absorbance at 540 nm.
Controls were incubated in similar manner as samples. As a non-hemolysis control mQ supplemented with glucose (0%) was used and for hemolytic control 0.1% TritonX-100 with glucose (100%) was used (cells are suspended in 2× PBS before addition). Final percent was calculated as follows: […]
For hemolytic concentration determination 2× PBS at pH 7.5 was used for incubation and 1× PBS at pH 7.5 was used for washing. Everything else is as described in previous paragraph.

[1] = system: subcutaneous HT-1080 tumor xenograft; assay: Biodistribution of CPP/Cy5-siRNA nanoparticles, HT-1080 tumor; type: in vivo, mouse; conditions: peak at 3 h
Protocol: Human tumor xenografts (subcutaneous U87MG and HT-1080) were induced in mice (Hsd: Athymic Nude-Foxn1nu female, 2.5 month old, Harlan, UK). The xenografting was performed by implanting the cell suspension (1×10^6 cells in 100 ul volume of ice-cold DMEM without any supplements) subcutaneously to the flank.
At the appearance of tumor size of approx. 100 mm^3, mice were injected i.v. (via tail vein) with the CPP/siRNA complexes. Each animal received a single 200 ul i.v. injection of 20 ug Cy5-siRNA, formulated with CPPs at MR20 or MR40. As a control, 20 μg of un-complexed Cy5-labeled siRNA was administered. The biodistribution of Cy5-siRNA and CPP/Cy5-siRNA complexes was evaluated at different time points −0.5 h up to 6 h. For that, mice (n=2 in each treatment group) were imaged in vivo using IVIS Lumina II (CaliperLS, USA). Cy-5 fluorescence intensity values were acquired from the tumor region.

CHO cells = assay: pDNA (p-CMV-Luc2) transfection with CPP/pDNA complexes; type: cell-based; conditions: serum containing medium, CR1 to CR4, 24 h
Protocol: For the pDNA transfection experiment, CPP/pDNA nanoparticles were prepared by mixing […] of plasmid (p-CMV-Luc2) with the peptide in MQ water. Charge ratios from 1 to 4 (CR, equivalent to the nitrogen-to-phosphate ratio) were used. 50,000 CHO cells were seeded 24 hr before the experiment into 24-well plates, treated with complexes for 4 h in serum-containing medium, incubated for additional 20 hr, lysed and luminescence was measured.

Proteinase K = target: T1, Proteinase K (Parengyodontium album, UniProt P06873); assay: Stability of CPP/siRNA complexes to degradation by Proteinase K; type: physicochemical; conditions: Proteinase K >14.4 U per well
T1 construct: purchased Thermo Scientific, USA
T1 sequence (P06873 106-384): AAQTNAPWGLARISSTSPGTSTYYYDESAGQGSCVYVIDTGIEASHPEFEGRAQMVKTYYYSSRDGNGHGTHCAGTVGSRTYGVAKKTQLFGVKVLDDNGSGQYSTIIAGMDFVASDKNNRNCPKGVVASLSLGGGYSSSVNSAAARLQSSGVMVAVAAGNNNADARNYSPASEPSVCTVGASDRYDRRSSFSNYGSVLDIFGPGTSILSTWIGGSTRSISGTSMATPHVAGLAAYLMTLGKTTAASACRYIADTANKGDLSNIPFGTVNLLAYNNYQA
Protocol: To assess protection of siRNA from enzymatic degradation, after addition of PG dilution and initial measurement to set a starting point, Proteinase K (Thermo Scientific, USA) was added (>14 U/ml, 20 ul of mixture per well containing dilution of 120 ul of enzyme in 1 ml), co-incubated with complexes and fluorescence was measured over a 10 h period.

[2] = Negative staining TEM of CPP/siRNA nanoparticles; type: physicochemical; conditions: CPP/siRNA complexes at MR30
Protocol: For the morphological analysis the CPP/siRNA complexes were assembled as described above at MR30. For negative staining, copper grids were covered with Formvar film and carbon layer using Leica EM ACE600 carbon coater (Leica Microsystems, Germany). Then, 10 μL of each sample was absorbed to the grids for 2 min and excess of solution was gently removed. Samples were then exposed to 2% aqueous uranyl acetate solution for 1 min. After removing excess stain with filter paper, the samples were allowed to air-dry. The samples were examined at 120 kV accelerating voltage on FEI Tecnai G2 Spirit electron microscope (FEI, The Netherlands).

Q: For CCCCCCCCCCCCCCCCCC(=O)N[C@@H](Cc1c[nH]cn1)C(=O)N[C@@H](Cc1c[nH]cn1)C(=O)N[C@@H](Cc1ccc(O)cc1)C(=O)N[C@@H](Cc1c[nH]cn1)C(=O)N[C@@H](Cc1c[nH]cn1)C(=O)NCC(=O)NCCC[C@H](N)C(=O)N[C@H](C(=O)N[C@@H](CC(C)C)C(=O)N[C@@H](CC(C)C)C(=O)N[C@@H](CCCCN)C(=O)N[C@@H](C)C(=O)N[C@@H](CC(C)C)C(=O)N[C@@H](CCCCN)C(=O)N[C@@H](C)C(=O)N[C@@H](CC(C)C)C(=O)N[C@@H](C)C(=O)N[C@@H](CCCCN)C(=O)N[C@@H](C)C(=O)N[C@H](C(=O)N[C@@H](CC(C)C)C(N)=O)[C@@H](C)CC)[C@@H](C)CC [NF71] (I: H-[Orn]ILLKALKALAKAIL-NH2 / II: Stearoyl-HHYHHG; amide I:1-II:C), which “HC50 CPP/siRNA complex (peptide concentration)” value (murine red blood cells) is on record?
A: 2.5 µM

Q: And the “HC50 Free peptide” value (murine red blood cells; free peptide)?
A: 1.2 µM

Q: And the “hemolytic activity of free peptide (in words)” value (murine red blood cells; free peptide, up to 10 uM)?
A: more hemolytic than its parent peptide NF55

Q: And the “peak accumulation in HT-1080 tumor relative to naked Cy5-siRNA” value [1]?
A: 37 fold

Q: And the “pDNA delivery / gene expression in vitro (in words)” value (CHO cells)?
A: promising vectors for pDNA transfection

Q: And the “stability of complexes to proteinase K (in words)” value (Proteinase K)?
A: only slightly more resistant than NF55/siRNA complexes

Q: Which results are given for CCCCCCCCCCCCCCCCCCCC(=O)N[C@@H](Cc1c[nH]cn1)C(=O)N[C@@H](Cc1c[nH]cn1)C(=O)N[C@@H](Cc1c[nH]cn1)C(=O)N[C@@H](Cc1c[nH]cn1)C(=O)N[C@@H](Cc1ccc(O)cc1)C(=O)N[C@@H](Cc1c[nH]cn1)C(=O)N[C@@H](Cc1c[nH]cn1)C(=O)NCC(=O)NCCC[C@H](N)C(=O)N[C@H](C(=O)N[C@@H](CC(C)C)C(=O)N[C@@H](CC(C)C)C(=O)N[C@@H](CCCCN)C(=O)N[C@@H](C)C(=O)N[C@@H](CC(C)C)C(=O)N[C@@H](CCCCN)C(=O)N[C@@H](C)C(=O)N[C@@H](CC(C)C)C(=O)N[C@@H](C)C(=O)N[C@@H](CCCCN)C(=O)N[C@@H](C)C(=O)N[C@H](C(=O)N[C@@H](CC(C)C)C(N)=O)[C@@H](C)CC)[C@@H](C)CC [NF70] (I: H-[Orn]ILLKALKALAKAIL-NH2 / II: Arachidoyl-HHHHYHHG; amide I:1-II:C)?
A: length or size of elongated particles, conglomerates or aggregates (TEM) [2]: 40-80 nm; nanoparticle diameter / size (TEM) [2]: 30-40 nm; hemolytic concentration, fold higher than NF71 (murine red blood cells): 3.6; HC50 CPP/siRNA complex (peptide concentration) (murine red blood cells): 8.3 µM; HC50 times higher than that of NF55 (murine red blood cells; free peptide): 2.5 times; HC50 Free peptide (murine red blood cells; free peptide): 4.3 µM; pH dependent hemolytic activity (in words) (murine red blood cells; peptide 0.75 uM, buffer pH 5.5-7.5): the increase was less substantial
